Here are results for one compound from ChEMBL document CHEMBL2074577, “Resistance to mitoxantrone in multidrug-resistant MCF7 breast cancer cells: evaluation of mitoxantrone transport and the role of multidrug resistance protein family proteins” (Cancer Res, 2001).

This data set concerns the target Multidrug resistance-associated protein 1 (Homo sapiens, UniProt P33527). Nature of the data set: TP_TRANSPORTER: efflux in MCF7/VP and MCF cells. The data set is classed as functional, cell-based.

Chain of Multidrug resistance-associated protein 1 (P33527 whole entry): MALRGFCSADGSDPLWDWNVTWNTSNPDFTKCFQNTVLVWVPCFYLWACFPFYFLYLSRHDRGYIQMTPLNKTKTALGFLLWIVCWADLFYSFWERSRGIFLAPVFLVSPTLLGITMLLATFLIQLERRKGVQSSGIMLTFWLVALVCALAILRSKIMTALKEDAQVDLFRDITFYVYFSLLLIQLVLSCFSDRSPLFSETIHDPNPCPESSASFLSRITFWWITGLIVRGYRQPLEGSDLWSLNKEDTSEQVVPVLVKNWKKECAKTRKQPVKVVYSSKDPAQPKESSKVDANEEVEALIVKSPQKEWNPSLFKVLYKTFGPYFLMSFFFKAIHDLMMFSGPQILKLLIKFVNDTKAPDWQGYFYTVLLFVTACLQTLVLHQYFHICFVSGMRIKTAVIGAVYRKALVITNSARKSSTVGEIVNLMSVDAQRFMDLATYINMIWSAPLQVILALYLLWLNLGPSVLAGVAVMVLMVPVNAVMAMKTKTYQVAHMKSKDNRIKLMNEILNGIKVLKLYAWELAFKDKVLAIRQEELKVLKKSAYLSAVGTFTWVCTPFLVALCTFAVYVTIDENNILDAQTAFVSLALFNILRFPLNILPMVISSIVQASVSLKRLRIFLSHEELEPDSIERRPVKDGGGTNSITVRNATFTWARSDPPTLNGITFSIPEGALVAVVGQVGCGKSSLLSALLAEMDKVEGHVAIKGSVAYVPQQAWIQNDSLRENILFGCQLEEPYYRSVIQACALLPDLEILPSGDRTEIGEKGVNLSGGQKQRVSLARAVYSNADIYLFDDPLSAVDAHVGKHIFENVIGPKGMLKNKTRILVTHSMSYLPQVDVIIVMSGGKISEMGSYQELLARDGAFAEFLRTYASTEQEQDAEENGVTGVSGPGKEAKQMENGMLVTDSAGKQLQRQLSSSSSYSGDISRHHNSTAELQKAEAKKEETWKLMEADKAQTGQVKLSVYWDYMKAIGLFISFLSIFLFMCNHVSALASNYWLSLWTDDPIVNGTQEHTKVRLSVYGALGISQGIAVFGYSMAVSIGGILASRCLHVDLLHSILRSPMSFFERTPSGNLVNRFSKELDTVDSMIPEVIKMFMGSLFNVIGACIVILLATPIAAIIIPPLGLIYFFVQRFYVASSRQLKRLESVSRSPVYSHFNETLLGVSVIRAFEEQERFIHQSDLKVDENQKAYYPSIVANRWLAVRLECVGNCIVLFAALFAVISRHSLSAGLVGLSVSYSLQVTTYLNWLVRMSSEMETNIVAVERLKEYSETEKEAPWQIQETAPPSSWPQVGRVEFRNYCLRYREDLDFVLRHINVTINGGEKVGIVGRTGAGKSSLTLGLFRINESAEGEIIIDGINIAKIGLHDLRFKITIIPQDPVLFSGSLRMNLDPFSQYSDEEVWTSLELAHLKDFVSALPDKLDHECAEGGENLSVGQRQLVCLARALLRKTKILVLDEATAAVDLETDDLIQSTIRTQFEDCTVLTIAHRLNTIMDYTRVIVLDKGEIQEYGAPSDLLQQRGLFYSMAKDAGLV

`O=C1c2c(O)ccc(O)c2C(=O)c2c(NCCNCCO)ccc(NCCNCCO)c21` [MITOXANTRONE]: the Activity entry was “substrate [+]”.
